Data as given in paper PMC4429810, “Heat shock protein 90 inhibitors repurposed against Entamoeba histolytica” (Frontiers in Microbiology, 2015).
Where a name gives a salt, the structure may show the parent alone.

target: T1, EhHsp90 ATP-binding domain (Entamoeba histolytica, UniProt C4MBP1); experiment: bis-ANS fluorescence displacement screen; settings: read-out: Percent inhibition of fluorescence in protein screen at 2.5 μM (%)
T1 construct: gene EHI_102270; cloned from genomic DNA in pET28a, E. coli BL21(DE3); His tag said to be cut by TEV; pocket residues C49, C103, R109
Source text: bis-ANS fluorescence displacement screen on EhHsp90 ATP-binding domain

T1 sequence (C4MBP1 1-215): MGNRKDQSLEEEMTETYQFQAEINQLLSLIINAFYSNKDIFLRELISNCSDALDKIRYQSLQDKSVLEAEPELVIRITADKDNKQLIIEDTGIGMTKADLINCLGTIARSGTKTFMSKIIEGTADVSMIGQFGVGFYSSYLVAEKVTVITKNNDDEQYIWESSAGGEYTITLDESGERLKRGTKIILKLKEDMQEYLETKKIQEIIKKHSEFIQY

Structure (SMILES)	inhibition at 2.5 µM
CCN(CC)Cc1cc(Nc2ccnc3cc(Cl)ccc23)ccc1O [Amodiaquindihydrochloride dihydrate]	82.1%
COc1ccc2cc3[n+](cc2c1OC)CCc1cc2c(cc1-3)OCO2 [Berberine chloride]	78.3%
C=CC1=C(C)/C(=C/c2[nH]c(Cc3[nH]c(/C=C4\NC(=O)C(C)=C4C=C)c(C)c3CCC(=O)O)c(CCC(=O)O)c2C)NC1=O [Bilirubin]	73.7%
CC(C)/N=c1\cc2n(-c3ccc(Cl)cc3)c3ccccc3nc-2cc1Nc1ccc(Cl)cc1 [Clofazimine]	73.7%
COc1cccc2c1C(=O)c1c(O)c3c(c(O)c1C2=O)C[C@@](O)(C(C)=O)C[C@@H]3O[C@H]1C[C@H](N)[C@H](O)[C@H](C)O1 [Daunorubicin hydrochloride]	83.2%
O=C1Nc2ccc(I)cc2/C1=C/c1cc(Br)c(O)c(Br)c1 [GW5074]	70.5%
CN(C)c1ccc(C(=C2C=CC(=[N+](C)C)C=C2)c2ccc(N(C)C)cc2)cc1 [Gentian Violet]	99.3%
CCN(CC)CCNc1ccc(CO)c2sc3ccccc3c(=O)c12 [Hycanthone]	90.9%
O=C1c2c(O)ccc(O)c2C(=O)c2c(NCCNCCO)ccc(NCCNCCO)c21 [Mitoxantronedihydrochloride]	95.3%
N=C1C=CC(=C(c2ccc(N)cc2)c2ccc(N)cc2)C=C1 [Pararosaniline pamoate]	99%
O=C1c2ccccc2C(=O)c2c(O)c(O)cc(O)c21 [Purpurin]	75%
CO[C@H]1/C=C/O[C@@]2(C)Oc3c(C)c(O)c4c(c3C2=O)C2=NC3(CCN(CC(C)C)CC3)NC2=C(NC(=O)/C(C)=C\C=C\[C@H](C)[C@H](O)[C@@H](C)[C@@H](O)[C@@H](C)[C@H](OC(C)=O)[C@@H]1C)C4=O [Rifabutin]	73.7%
CC[C@@]1(O)C[C@H](O[C@H]2C[C@H](N(C)C)[C@H](O)[C@H](C)O2)c2c(cc3c(c2O)C(=O)c2c(O)ccc(O)c2C3=O)[C@H]1C(=O)OC [Rutilantin]	77.1%
C[n+]1cc2c3c(ccc2c2ccc4cc5c(cc4c21)OCO5)OCO3 [Sanguinarine sulfate]	71.3%
N#C/C(=C\c1ccc(O)c(O)c1)C(=O)c1ccc(O)c(O)c1 [Tyrphostin AG 538]	75%
CN(C)c1ccc(C(=C2C=CC(=[N+](C)C)C=C2)c2ccccc2)cc1 [WB 64 (Malachite Green)]	84.9%

target: T2, PfHsp90 ATP-binding domain (Plasmodium falciparum, UniProt Q8IC05); experiment: bis-ANS fluorescence displacement screen; settings: bis-ANS 5 μM, protein 1 μM, Tris pH 7.5, 10 mM MgCl2, 50 mM KCl, 37°C; competition with bis-ANS at ATP-binding domain
T2 construct: gene PF3D7_0708400; from genomic DNA in pET28b, E. coli BL21(DE3); His tag said to be cut by TEV; pocket residues A38, N92, R98
T2 sequence (Q8IC05 1-211): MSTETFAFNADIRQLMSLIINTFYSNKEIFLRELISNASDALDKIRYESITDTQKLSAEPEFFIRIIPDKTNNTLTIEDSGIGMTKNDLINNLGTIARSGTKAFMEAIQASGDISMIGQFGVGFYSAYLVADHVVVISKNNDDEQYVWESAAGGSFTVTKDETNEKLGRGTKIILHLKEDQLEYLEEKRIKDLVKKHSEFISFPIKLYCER

Structure (SMILES)	bis-ANS fluorescence displacement screen
CO[C@H]1/C=C/O[C@@]2(C)Oc3c(C)c(O)c4c(c3C2=O)C2=NC3(CCN(CC(C)C)CC3)NC2=C(NC(=O)/C(C)=C\C=C\[C@H](C)[C@H](O)[C@@H](C)[C@@H](O)[C@@H](C)[C@H](OC(C)=O)[C@@H]1C)C4=O [Rifabutin]	rifabutin showed the highest inhibition against PfHsp90
